Experiments:
CDK7/cyclin H = CDK7/cyclin H (Homo sapiens, UniProt P50613); assay: CDK7 assay; assay type: biochemical; conditions: Table 2; read-out: Kinase Inhibition IC50 CDK7 cyclin H
Method in brief: (§1)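 Radiometric filter-binding format: test compound at varying amounts incubated with CTD peptide (biotinyl-Ahx-(YSPTSPS)4-NH2) and either CDK9/cyclin T1 or CDK7/cyclin H, using 100 μM ATP spiked with 32P, 45 min, 30 °C, pH 7.2. Reactions were stopped on ice, bound to avidin, filtered on P81 plates and scintillation-counted.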

CDK4/cyclin D1 = CDK4/cyclin D1 (Homo sapiens, UniProt P11802); assay: Kinase assay CDK4/cyclin D1; assay type: biochemical; conditions: Table 2; read-out: Kinase Inhibition IC50 CDK4 cyclin D1
Method in brief: (§2)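 Each kinase phosphorylates a suitable polypeptide using 32P-labelled ATP (100 μM) at 30° C. Filtered, washed product is counted.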

Saos-2 = assay: 72-h MTT cytotoxicity assay Saos-2; assay type: cell-based; conditions: Homo sapiens, SAOS-2, 72 h, Table 4
Method in brief: (§3)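 Cells were seeded according to doubling time, then exposed to 1/3 serial dilutions of compound in triplicate for 72 h at 37 °C. MTT was added for 4 h at 37 °C in the dark, and the formazan was dissolved in DMSO.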

HT29 = assay: 72-h MTT cytotoxicity assay HT29; assay type: cell-based; conditions: Homo sapiens, HT-29, 72 h, Table 4
Method in brief: as §3

A549 = assay: 72-h MTT cytotoxicity assay A549; assay type: cell-based; conditions: Homo sapiens, A549, 72 h, Table 4
Method in brief: as §3

CDK2/cyclin A = CDK2/cyclin A (Homo sapiens, UniProt P24941); assay: Kinase assay CDK2/cyclin A; assay type: biochemical; conditions: Table 2; read-out: Kinase Inhibition IC50 CDK2 cyclin A
Method in brief: as §2

CDK1/cyclin B = CDK1/cyclin B (Homo sapiens, UniProt P06493); assay: Kinase assay CDK1/cyclin B; assay type: biochemical; conditions: Table 2; read-out: Kinase Inhibition IC50 CDK1 cyclin B
Method in brief: as §2

CDK2/cyclin E = CDK2/cyclin E (Homo sapiens, UniProt P24941); assay: Kinase assay CDK2/cyclin E; assay type: biochemical; conditions: Table 2; read-out: Kinase Inhibition IC50 CDK2 cyclin E
Method in brief: as §2

GSK-3β = GSK-3β (Homo sapiens, UniProt P49841); assay: Kinase assay GSK-3β; assay type: biochemical; conditions: Table 2; read-out: Kinase Inhibition IC50 GSK-3β
Method: (§4) Kinase assays. […] This was achieved by measurement of incorporation of radioactive phosphate from ATP into appropriate polypeptide substrates. Recombinant protein kinases and kinase complexes were produced or obtained commercially. Assays were performed using 96-well plates and appropriate assay buffers (typically 25 mM β-glycerophosphate, 20 mM MOPS, 5 mM EGTA, 1 mM DTT, 1 mM […], pH 7.4), into which were added 2-4 μg of active enzyme with appropriate substrates. The reactions were initiated by addition of Mg/ATP mix (15 mM MgCl2+100 μM ATP with 30-50 kBq per well of [γ-^32P]-ATP) and mixtures incubated as required at 30° C. Reactions were stopped on ice, followed by filtration through p81 filterplates or GF/C filterplates (Whatman Polyfiltronics, Kent, UK). After washing 3 times with 75 mM aq orthophosphoric acid, plates were dried, scintillant added and incorporated radioactivity measured in a scintillation counter (TopCount, Packard Instruments, Pangbourne, Berks, UK). Compounds for kinase assay were made-up as 10 mM stocks in DMSO and diluted into 10% DMSO inrassay buffer.

CDK9/cyclin T1 = CDK9/cyclin T1 (Homo sapiens, UniProt P50750); assay: CDK9 assay; assay type: biochemical; conditions: Table 2; read-out: Kinase Inhibition IC50 CDK9 cyclin T1
Method in brief: as §1

PLK-1 = PLK-1 (Homo sapiens, UniProt P53350); assay: Kinase assay PLK-1; assay type: biochemical; conditions: Table 2; read-out: Kinase Inhibition IC50 PLK-1
Method: as §4

Sequence of CDK9/cyclin T1 (P50750 whole entry): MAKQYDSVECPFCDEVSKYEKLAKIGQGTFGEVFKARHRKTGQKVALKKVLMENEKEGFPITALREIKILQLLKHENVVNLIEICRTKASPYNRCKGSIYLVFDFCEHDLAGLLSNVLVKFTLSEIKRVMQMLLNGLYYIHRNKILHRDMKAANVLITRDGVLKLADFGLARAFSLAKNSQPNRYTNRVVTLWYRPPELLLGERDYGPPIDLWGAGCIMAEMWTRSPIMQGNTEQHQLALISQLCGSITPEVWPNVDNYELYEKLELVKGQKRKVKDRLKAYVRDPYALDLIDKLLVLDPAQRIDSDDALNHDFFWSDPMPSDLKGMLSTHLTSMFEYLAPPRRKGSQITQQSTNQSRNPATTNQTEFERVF
Sequence of CDK9/cyclin T1 (O60563 whole entry partner): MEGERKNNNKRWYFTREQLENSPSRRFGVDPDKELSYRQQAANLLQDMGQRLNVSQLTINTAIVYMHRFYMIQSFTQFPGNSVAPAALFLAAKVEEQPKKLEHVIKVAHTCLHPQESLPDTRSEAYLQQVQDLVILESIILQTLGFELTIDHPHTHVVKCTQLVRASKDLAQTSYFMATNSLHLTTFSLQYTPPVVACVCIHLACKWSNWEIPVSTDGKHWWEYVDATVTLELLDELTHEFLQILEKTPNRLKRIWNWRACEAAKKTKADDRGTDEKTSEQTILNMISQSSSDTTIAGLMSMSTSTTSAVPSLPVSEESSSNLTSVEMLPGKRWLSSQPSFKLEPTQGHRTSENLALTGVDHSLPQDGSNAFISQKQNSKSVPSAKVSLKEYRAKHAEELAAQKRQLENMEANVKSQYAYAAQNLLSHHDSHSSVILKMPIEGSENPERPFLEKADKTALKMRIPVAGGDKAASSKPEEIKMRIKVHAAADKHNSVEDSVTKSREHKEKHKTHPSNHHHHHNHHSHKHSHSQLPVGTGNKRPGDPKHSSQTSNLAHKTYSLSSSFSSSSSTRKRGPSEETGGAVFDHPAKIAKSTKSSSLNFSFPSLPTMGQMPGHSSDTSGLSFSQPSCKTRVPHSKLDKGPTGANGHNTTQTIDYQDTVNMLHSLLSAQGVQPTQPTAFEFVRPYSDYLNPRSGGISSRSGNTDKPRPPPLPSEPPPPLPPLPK
Sequence of CDK4/cyclin D1 (P11802 whole entry): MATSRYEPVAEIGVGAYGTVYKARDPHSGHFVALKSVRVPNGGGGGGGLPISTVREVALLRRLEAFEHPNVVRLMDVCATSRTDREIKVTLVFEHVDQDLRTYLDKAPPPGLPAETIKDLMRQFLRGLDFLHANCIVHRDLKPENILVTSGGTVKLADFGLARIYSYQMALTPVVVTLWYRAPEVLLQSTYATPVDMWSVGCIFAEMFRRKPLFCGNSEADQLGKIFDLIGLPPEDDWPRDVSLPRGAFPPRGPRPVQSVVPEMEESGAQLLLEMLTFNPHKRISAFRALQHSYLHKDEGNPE
Sequence of CDK4/cyclin D1 (P24385 whole entry partner): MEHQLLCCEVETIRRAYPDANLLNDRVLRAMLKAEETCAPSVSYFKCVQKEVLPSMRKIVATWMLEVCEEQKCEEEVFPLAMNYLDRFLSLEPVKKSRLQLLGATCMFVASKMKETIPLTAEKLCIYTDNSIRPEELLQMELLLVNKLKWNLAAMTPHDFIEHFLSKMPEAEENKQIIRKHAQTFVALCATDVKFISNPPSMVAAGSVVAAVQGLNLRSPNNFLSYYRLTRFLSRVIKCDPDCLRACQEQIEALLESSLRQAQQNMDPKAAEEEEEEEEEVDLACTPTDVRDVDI
Sequence of CDK7/cyclin H (P50613 whole entry): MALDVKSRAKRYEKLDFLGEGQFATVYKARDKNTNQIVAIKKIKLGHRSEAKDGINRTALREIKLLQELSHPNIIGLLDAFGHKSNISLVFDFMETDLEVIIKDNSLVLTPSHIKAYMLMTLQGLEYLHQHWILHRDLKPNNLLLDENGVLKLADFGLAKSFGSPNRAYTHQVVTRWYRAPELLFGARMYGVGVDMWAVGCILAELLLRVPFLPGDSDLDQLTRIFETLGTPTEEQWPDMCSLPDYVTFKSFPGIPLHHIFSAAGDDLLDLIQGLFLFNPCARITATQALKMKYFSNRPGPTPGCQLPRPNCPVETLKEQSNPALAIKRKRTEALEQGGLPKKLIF
Sequence of GSK-3β (P49841 whole entry): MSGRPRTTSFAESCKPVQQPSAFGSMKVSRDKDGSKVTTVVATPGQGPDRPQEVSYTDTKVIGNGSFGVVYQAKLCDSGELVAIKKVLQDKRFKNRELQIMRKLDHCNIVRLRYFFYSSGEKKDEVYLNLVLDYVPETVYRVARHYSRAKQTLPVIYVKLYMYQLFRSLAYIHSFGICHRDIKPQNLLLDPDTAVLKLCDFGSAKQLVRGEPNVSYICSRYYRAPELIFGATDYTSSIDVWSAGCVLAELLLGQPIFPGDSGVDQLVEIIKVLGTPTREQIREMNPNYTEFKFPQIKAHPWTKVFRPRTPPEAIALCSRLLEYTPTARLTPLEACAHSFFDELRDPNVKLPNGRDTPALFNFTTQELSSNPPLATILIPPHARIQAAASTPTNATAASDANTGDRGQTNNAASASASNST
Sequence of PLK-1 (P53350 whole entry): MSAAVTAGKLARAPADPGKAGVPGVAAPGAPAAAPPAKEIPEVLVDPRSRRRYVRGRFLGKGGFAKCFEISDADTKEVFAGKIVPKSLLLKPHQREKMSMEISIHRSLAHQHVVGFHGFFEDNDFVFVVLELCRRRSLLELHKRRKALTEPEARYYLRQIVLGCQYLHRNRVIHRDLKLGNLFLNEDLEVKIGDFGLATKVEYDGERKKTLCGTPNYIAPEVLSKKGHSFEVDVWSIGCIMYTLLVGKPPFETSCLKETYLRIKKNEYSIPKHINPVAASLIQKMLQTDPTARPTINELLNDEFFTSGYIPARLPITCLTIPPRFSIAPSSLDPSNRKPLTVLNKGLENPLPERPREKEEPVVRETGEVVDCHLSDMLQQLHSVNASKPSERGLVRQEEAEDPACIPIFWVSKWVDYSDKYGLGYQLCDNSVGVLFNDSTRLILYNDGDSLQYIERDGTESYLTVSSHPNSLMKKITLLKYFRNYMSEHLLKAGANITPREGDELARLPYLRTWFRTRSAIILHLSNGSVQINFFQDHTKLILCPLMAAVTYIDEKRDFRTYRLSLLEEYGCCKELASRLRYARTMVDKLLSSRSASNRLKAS
Sequence of CDK1/cyclin B (P06493 whole entry): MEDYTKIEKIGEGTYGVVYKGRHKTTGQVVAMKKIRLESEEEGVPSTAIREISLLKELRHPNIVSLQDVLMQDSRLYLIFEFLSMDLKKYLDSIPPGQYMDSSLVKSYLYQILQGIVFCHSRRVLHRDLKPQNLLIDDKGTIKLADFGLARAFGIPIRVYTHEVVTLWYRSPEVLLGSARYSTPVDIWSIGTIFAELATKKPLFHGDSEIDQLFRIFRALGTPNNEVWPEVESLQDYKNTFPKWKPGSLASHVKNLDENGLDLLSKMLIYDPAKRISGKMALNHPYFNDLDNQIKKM
Sequence of CDK1/cyclin B (P14635 whole entry partner): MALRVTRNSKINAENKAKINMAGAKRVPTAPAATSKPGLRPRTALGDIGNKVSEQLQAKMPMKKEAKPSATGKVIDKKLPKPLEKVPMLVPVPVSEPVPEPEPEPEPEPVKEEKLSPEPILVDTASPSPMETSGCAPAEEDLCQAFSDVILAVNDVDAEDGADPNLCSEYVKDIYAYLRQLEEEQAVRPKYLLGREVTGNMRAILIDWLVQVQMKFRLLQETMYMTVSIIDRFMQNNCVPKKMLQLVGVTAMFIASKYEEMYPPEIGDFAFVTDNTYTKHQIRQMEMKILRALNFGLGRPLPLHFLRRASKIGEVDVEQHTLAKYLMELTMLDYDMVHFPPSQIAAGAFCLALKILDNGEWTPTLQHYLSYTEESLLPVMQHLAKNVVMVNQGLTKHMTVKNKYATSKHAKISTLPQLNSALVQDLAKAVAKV

IC50 (CDK7/cyclin H) | IC50 (CDK4/cyclin D1) | IC50 (CDK2/cyclin A) | IC50 (CDK1/cyclin B) | IC50 (CDK2/cyclin E) | IC50 (GSK-3β) | IC50 (CDK9/cyclin T1) | IC50 (PLK-1) | melting point | Compound | IC50 (Saos-2) | IC50 (HT29) | IC50 (A549)
0.2 µM | 1.7 µM | 0.098 µM | 0.24 µM | 0.0025 µM | 0.25 µM | 0.11 µM | > 100 µM | – | Cc1nc(NC(=O)CCN2CCOCC2)sc1-c1ccnc(Nc2cccc([N+](=O)[O-])c2)n1 [Compound 22, N-{4-Methyl-5-[2-(3-nitro-phenylamino)-pyrimidin-4-yl]-thiazol-2-yl}-3-morpholin-4-yl-propionamide] | 0.6 µM | 0.52 µM | 0.81 µM
4.9 µM | 1.3 µM | 0.32 µM | 0.54 µM | 0.097 µM | 14 µM | 0.46 µM | > 200 µM | – | Cc1nc(NC(=O)CCN2CCOCC2)sc1-c1ccnc(Nc2ccc(F)cc2)n1 [Compound 21, N-{5-[2-(4-Fluoro-phenylamino)-pyrimidin-4-yl]-4-methyl-thiazol-2-yl}-3-morpholin-4-yl-propionamide] | 4.3 µM | 4.1 µM | 8.6 µM
2.6 µM | 0.086 µM | 0.11 µM | 0.71 µM | 0.14 µM | 2.2 µM | 0.47 µM | – | 216 to 218 °C | CNc1nc(C)c(-c2ccnc(Nc3ccc(CCO)cc3)n2)s1 [Compound 59, 2-{4-[4-(4-Methyl-2-methylamino-thiazol-5-yl)-pyrimidin-2-ylamino]-phenyl}-ethanol] | 1.9 µM | 1.7 µM | 2.4 µM
0.85 µM | 0.022 µM | 68 µM | 18 µM | 0.6 µM | > 100 µM | 17 µM | – | 229 to 231 °C | Cc1nc(N2CCOCC2)sc1-c1ccnc(Nc2ccc(N3CCOCC3)cc2)n1 [Compound 56, [4-(4-Methyl-2-morpholin-4-yl-thiazol-5-yl)-pyrimidin-2-yl]-(4-morpholin-4-yl-phenyl)-amine] | 5 µM | 2.9 µM | 4.4 µM
1.1 µM | 0.19 µM | 1 µM | 4.2 µM | 1.8 µM | 53 µM | 0.28 µM | 55 µM | – | Cc1nc(C)c(-c2ccnc(Nc3ccc(N4CCN(C)CC4)cc3)n2)s1 [Compound 12, [4-(2,4-Dimethyl-thiazol-5-yl)-pyrimidin-2-yl]-[4-(4-methyl-piperazin-1-yl)-phenyl]-amine] | 0.43 µM | 0.74 µM | 0.71 µM
– | 0.11 µM | – | – | 0.33 µM | – | – | > 100 µM | 290 to 292 °C | CCNc1nc(C)c(-c2ccnc(Nc3cccc(CN)c3)n2)s1 [Compound 65, (3-Aminomethyl-phenyl)-[4-(2-ethylamino-4-methyl-thiazol-5-yl)-pyrimidin-2-yl]-amine] | 0.65 µM | 4.8 µM | 3.2 µM
1.3 µM | 0.39 µM | 0.85 µM | 3 µM | 0.71 µM | 5.2 µM | 1 µM | 13 µM | – | Cc1nc(C)c(-c2ccnc(Nc3ccc(N4CCNCC4)cc3)n2)s1 [Compound 6, [4-(2,4-Dimethyl-thiazol-5-yl)-pyrimidin-2-yl]-(4-piperazin-1-yl-phenyl)-amine] | 0.78 µM | 1.1 µM | 1.3 µM
0.97 µM | 0.36 µM | 1.1 µM | 4.9 µM | 1.2 µM | 39 µM | 0.51 µM | > 150 µM | – | Cc1nc(C)c(-c2ccnc(Nc3ccc(N4CCN(CCCO)CC4)cc3)n2)s1 [Compound 8, 3-(4-{4-[4-(2,4-Dimethyl-thiazol-5-yl)-pyrimidin-2-ylamino]-phenyl}-piperazin-1-yl)-propan-1-ol] | 0.38 µM | 0.8 µM | 0.61 µM
0.81 µM | 3 µM | 1.4 µM | 3.1 µM | 0.19 µM | 1.2 µM | 0.4 µM | 24 µM | – | Cc1nc(NC(=O)CCN2CCN(C)CC2)sc1-c1ccnc(Nc2cccc([N+](=O)[O-])c2)n1 [Compound 23, N-{4-Methyl-5-[2-(3-nitro-phenylamino)-pyrimidin-4-yl]-thiazol-2-yl}-3-(4-methyl-piperazin-1-yl)-propionamide] | 4.4 µM | 1.1 µM | 3.8 µM
13 µM | 0.95 µM | 0.89 µM | 3.4 µM | 0.39 µM | – | 0.0018 µM | – | 217 to 219 °C | Cc1nc(C)c(-c2ccnc(Nc3ccc(NC(=O)CCl)cc3)n2)s1 [Compound 50, 2-Chloro-N-{4-[4-(2,4-dimethyl-thiazol-5-yl)-pyrimidin-2-ylamino]-phenyl}-acetamide] | 0.16 µM | 0.16 µM | 0.16 µM
2.1 µM | 0.63 µM | 0.1 µM | 0.12 µM | 0.11 µM | – | – | – | 206 to 207 °C | CC(=O)NCc1cccc(Nc2nccc(-c3sc(C)nc3C)n2)c1 [Compound 66, N-{3-[4-(2,4-Dimethyl-thiazol-5-yl)-pyrimidin-2-ylamino]-benzyl}-acetamide] | – | – | –
– | 0.24 µM | – | – | 0.42 µM | – | – | > 100 µM | 287 to 289 °C | CNc1nc(C)c(-c2ccnc(Nc3cccc(CN)c3)n2)s1 [Compound 67, (3-Aminomethyl-phenyl)-[4-(4-methyl-2-methylamino-thiazol-5-yl)-pyrimidin-2-yl]-amine] | 1.1 µM | 14 µM | 14 µM

Compound | IC50 (CDK7/cyclin H) | IC50 (CDK4/cyclin D1) | IC50 (CDK2/cyclin A) | IC50 (CDK1/cyclin B) | IC50 (CDK2/cyclin E) | IC50 (GSK-3β) | IC50 (CDK9/cyclin T1) | IC50 (PLK-1) | melting point | IC50 (Saos-2) | IC50 (HT29) | IC50 (A549)
CNc1nc(C)c(-c2ccnc(Nc3cccc(CNC(C)=O)c3)n2)s1 [Compound 63, N-{3-[4-(4-Methyl-2-methylamino-thiazol-5-yl)-pyrimidin-2-ylamino]-benzyl}-acetamide] | 20 µM | 7.7 µM | 12 µM | 48 µM | – | 8.8 µM | 2.7 µM | 46 µM | 253 to 255 °C | 1.2 µM | 1.4 µM | 0.98 µM

From patent US7432260B2, “Pyrimidine compounds” (Cyclacel Limted, priority 2002, dated 2008)
